US20240016874A1, “COMPOSITIONS AND METHODS FOR PREVENTING AND TREATING CORONAVIRUSES” (priority 2020, published 2024)
Like-named read-outs stand apart in the source and are kept apart here.

Key:
[1] = system: SARS-CoV-2 MLV-PP infecting Expi-293F-ACE2 cells
[2] = system: SARS-CoV-2 MLV-PP infecting Expi-293F-ACE2 cells; experiment: microbe, parasite or virus in culture; conditions: Severe acute respiratory syndrome coronavirus 2, read-out: IC50 of thymoquinone, SARS-CoV-2-PP infection

## C[C@@H]1CCO[C@H]2Cn3cc(C(=O)NCc4ccc(F)cc4F)c(=O)c(O)c3C(=O)N12 [dolutegravir, reference compound]
[1]
  inhibition of SARS-CoV-2 MLV-PP: potent inhibitor

## CC1=CC(=O)C(C(C)C)=CC1=O [thymoquinone]
[1]
  block of the viral infection: block the viral infection
  cell toxicity at high concentrations: can cause cell death
  concentration that blocks SARS-CoV-2-MLV-PP infection without any cell toxicity: 1 to 10 µM
  increased effectiveness on adding black seed oil to thymoquinone: about 16.0%
[1]; read-out: IC50 of thymoquinone, SARS-CoV-2-PP infection
  IC50: 3.6 µM
[2]
  IC50: 4.3 µM

## COc1cnc(-n2cnc(C)n2)c2[nH]cc(C(=O)C(=O)N3CCN(C(=O)c4ccccc4)CC3)c12 [temsavir, reference compound]
[1]
  inhibition of SARS-CoV-2 MLV-PP infecting Expi-293F-ACE2 cells: does not inhibit
